Here are results for eleven molecules from patent US10604484B2, “Indolone compounds and their use as AMPA receptor modulators” (Janssen Pharmaceutica NV, priority 2015, dated 2020).

Each structure is given as a SMILES string.

T1 sequence (P42261+Q8WXS5 fused): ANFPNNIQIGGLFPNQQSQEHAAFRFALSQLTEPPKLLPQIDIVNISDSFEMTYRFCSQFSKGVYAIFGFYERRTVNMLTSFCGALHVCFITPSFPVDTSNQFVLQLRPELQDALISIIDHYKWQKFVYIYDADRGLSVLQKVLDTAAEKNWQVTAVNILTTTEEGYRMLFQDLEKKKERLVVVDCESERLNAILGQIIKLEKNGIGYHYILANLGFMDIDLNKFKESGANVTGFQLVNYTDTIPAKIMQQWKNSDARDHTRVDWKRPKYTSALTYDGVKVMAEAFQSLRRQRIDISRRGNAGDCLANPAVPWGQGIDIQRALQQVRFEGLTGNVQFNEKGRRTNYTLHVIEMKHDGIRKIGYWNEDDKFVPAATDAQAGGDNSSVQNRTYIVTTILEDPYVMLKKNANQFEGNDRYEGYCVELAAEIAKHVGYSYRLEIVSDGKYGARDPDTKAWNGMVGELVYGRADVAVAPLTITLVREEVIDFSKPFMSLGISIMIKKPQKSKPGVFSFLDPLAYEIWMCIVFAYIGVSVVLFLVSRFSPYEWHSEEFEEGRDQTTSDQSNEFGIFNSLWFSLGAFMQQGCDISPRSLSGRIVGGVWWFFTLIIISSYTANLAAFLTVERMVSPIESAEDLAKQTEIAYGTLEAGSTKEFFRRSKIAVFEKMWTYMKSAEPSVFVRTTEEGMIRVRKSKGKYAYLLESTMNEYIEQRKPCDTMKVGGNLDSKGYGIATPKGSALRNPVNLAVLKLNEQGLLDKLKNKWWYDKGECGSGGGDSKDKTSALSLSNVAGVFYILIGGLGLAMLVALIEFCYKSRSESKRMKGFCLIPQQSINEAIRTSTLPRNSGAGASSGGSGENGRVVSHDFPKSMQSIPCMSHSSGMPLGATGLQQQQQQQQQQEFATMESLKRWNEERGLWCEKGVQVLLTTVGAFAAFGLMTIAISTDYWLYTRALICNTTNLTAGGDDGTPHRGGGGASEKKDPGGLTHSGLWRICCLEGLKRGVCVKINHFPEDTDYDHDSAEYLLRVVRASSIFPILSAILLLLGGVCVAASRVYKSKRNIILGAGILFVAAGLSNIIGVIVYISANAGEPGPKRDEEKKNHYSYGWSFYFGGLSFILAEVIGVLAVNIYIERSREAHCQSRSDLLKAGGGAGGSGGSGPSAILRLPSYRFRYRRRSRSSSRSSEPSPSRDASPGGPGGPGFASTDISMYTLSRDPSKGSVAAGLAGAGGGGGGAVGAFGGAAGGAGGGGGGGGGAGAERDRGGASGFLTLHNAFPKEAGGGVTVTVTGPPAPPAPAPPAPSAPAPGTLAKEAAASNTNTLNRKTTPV

This test addresses T1, GluA1o-γ8 (Homo sapiens, UniProt P42261+Q8WXS5).
T1 construct: expressed in transfected cells
Nature of the test: Calcium flux assay (FLIPR), inhibition of glutamate response of GluA1o-γ8 channel in HEK293 cells. It is filed as cell-based. The following applies: HEK293 cells stably expressing GRIA1o-CACNG8 fusion; 15 μM glutamate; pIC50 = negative log of the IC50 in molar; read-out: GluR1-γ8 pIC50 (converted). An excerpt:
This assay was used to test compounds for their ability to inhibit TARP γ8 dependent AMPA receptor activity. The AMPA receptor is a non-selective cation channel activated by glutamate. Ionotropic glutamate receptors normally desensitize too rapidly to allow detectable calcium influx in a FLIPR assay (Strange et al. (2006). “Functional characterisation of homomeric ionotropic glutamate receptors GluR1-GluR6 in a fluorescence-based high throughput screening assay.” Comb Chem High Throughput Screen 9(2): 147-158). But, this desensitization is incomplete, and a substantial steady-state current remains in the sustained presence of glutamate (Cho et al. (2007). “Two families of TARP isoforms that have distinct effects on the kinetic properties of AMPA receptors and synaptic currents.” Neuron 55(6): 890-904).
An in vitro assay was used to determine the potency of test compounds as inhibitors of the glutamate response of the channel formed by GluA1o-γ8. To ensure a 1:1 stoichiometry of GluA1o and γ8 subunits in the expressed channel, a fusion of the cDNAs for GRIA1o and CACNG8 was used. Following Shi et al (2009) “The stoichiometry of AMPA receptors and TARPs varies by neuronal cell type.” Neuron 62(5): 633-640), the C-terminus of the cDNA for GRIA1o was fused to the N-terminus of the cDNA for γ8. The linker sequence was QQQQQQQQQQEFAT. Channels expressed with this construct appear to have similar properties to channels formed by co-expression of GRIA1o with an excess of CACNG8 (Shi et al. 2009). A clonal cell line in HEK293 cells stably expressing this construct, with a geneticin selection marker, was generated for use in this assay. Cell expressing the GRIA1o-CACNG8 fusion construct were grown in a monolayer in 96- or 384-well microtiter plates. They were washed with assay buffer (135 mM NaCl, 4 mM KCl, 3 mM CaCl2, 1 mM MgCl2, 5 mM glucose, 10 mM HEPES, pH 7.4, 300 mOs) using a Biotek EL405 plate washer. The cells were then loaded with a calcium-sensitive dye (Calcium-5 or Calcium-6, Molecular Devices) and the test compounds at a range of concentrations. Calcium flux following the addition of 15 μM glutamate was monitored using a Molecular Devices FLIPR Tetra.
The fluorescence in each well was normalized to the fluorescence of negative and positive control wells. The negative control wells had no added compounds, and the positive control wells had been incubated with 10 μM CP465022 (a non-subtype-selective AMPA receptor antagonist) (Lazzaro et al. (2002). “Functional characterization of CP-465,022, a selective, noncompetitive AMPA receptor antagonist.” Neuropharmacology 42(2): 143-153). The responses to glutamate as functions of the test compound concentrations were fitted to a four-parameter logistic function. The fitted parameter corresponding to the midpoint was taken to be the potency of inhibition of the compound. The data in Table 4 below illustrates the observed potentcy for the compounds described herein. pIC50 refers to the negative log of the IC50 in molar.
Regarding `CCc1cc(-c2c(C)cccc2C#N)cc2c1NC(=O)C2` [Example 169, 2-(7-Ethyl-2-oxo-indolin-5-yl)-3-methyl-benzonitrile], the IC50 is 3.16 nM. On to `CCc1cc(-c2c(C)cccc2Cl)cc2c1NC(=O)C2` [Example 170, 5-(2-Chloro-6-methyl-phenyl)-7-ethyl-indolin-2-one], for which the IC50 was 0.251 nM. In the case of `CCc1cc(-c2c(C)cccc2F)cc2c1NC(=O)C2` [Example 171, 7-Ethyl-5-(2-fluoro-6-methyl-phenyl)indolin-2-one] it was 1.58 nM; in that of `CCc1cc(-c2c(C)cccc2C(F)(F)F)cc2c1NC(=O)C2` [Example 172, 7-Ethyl-5-[2-methyl-6-(trifluoromethyl)phenyl]indolin-2-one], 0.2 nM; in that of `CCc1cc(-c2c(C)cncc2C)cc2c1NC(=O)C2` [Example 173, 5-(3,5-Dimethyl-4-pyridyl)-7-ethyl-indolin-2-one], 15.8 nM. With `CCc1cc(-c2c(Cl)cncc2Cl)cc2c1NC(=O)C2` [Example 174, 5-(3,5-Dichloro-4-pyridyl)-7-ethyl-indolin-2-one] the figure was 5.01 nM; with `N#Cc1cc(-c2c(Cl)cccc2OC(F)(F)F)cc2c1NC(=O)C2` [Example 175, 5-[2-Chloro-6-(trifluoromethoxy)phenyl]-2-oxo-indoline-7-carbonitrile], 0.631 nM. As for `O=C1Cc2cc(-c3c(Cl)cccc3OC(F)(F)F)cc(C(F)(F)F)c2N1` [Example 176, 5-[2-Chloro-6-(trifluoromethoxy)phenyl]-7-(trifluoromethyl)indolin-2-one], the IC50 is 0.501 nM. `O=C1Cc2cc(-c3c(Cl)cccc3OC(F)(F)F)cc(OC(F)(F)F)c2N1` [Example 177, 5-[2-Chloro-6-(trifluoromethoxy)phenyl]-7-(trifluoromethoxy)indolin-2-one]: the IC50 was 0.2 nM.

As to `COc1cc(-c2c(Cl)cccc2OC(F)(F)F)cc2c1NC(=O)C2` [Example 178, 5-[2-Chloro-6-(trifluoromethoxy)phenyl]-7-methoxy-indolin-2-one], the IC50 is 0.794 nM. With `COC1CCN(c2cccc(-c3ccc4c(c3)CC(=O)N4)c2Cl)CC1` [Example 179, 5-[2-Chloro-3-(4-methoxy-1-piperidyl)phenyl]indolin-2-one] the figure was 6310 nM.
